According to patent US20050209104A1, “Dinoflagellate karlotoxins, methods of isolation and uses thereof” (priority 2002, published 2005):
Converted amounts (≈) assume the structure as drawn. Like-named read-outs stand apart in the source and are kept apart here. Marks after values point to notes of the source that are not given here.

What was measured:
[1] = test system: rat embryonic fibroblast (REF 52) cells; test: Ion permeation measurement, Ca^2+ flux with fura-2 (fibroblasts); type: cell-based; settings: 0.2 μM
Protocol: The following cell types were tested for toxicity due to KmTx 2; rat embryonic fibroblast, rat intestional epithelial, and isolated rabbit primary sensory neurons. Cells were cultured on No. 1 glass coverslips and loaded with fluorescent indicator (fura-2) and were examined on an inverted epifluorescence microscope (model Diaphot; 40×CF Fluor objective, N.A. 1.30; Nikon Corp.) coupled to a spectrofluorometer (model CM1T10I, SPEX Industries) operating in the microfluorometry mode. Cells were bathed in 4 ml of Dulbecco's modified Eagle's medium (DMEM) buffered with HEPES (pH 7.4). KmTx 2 (stock solution in DMSO) was directly bath-applied with gentle convective mixing. Fura-2 was alternately excited at 340 and 380 nm. Fluorescence emission was passed through a 510-nm bandpass filter before photometric quantitation. DATAMAX software (SPEX Industries) was used for data acquisition and instrument control. Origin software (OriginLab Corp.) was used for data reduction and analysis

[2] = test system: sheepshead minnow (Cyprinodon variegatus) larvae; test: Static acute larval fish ichthyotoxicity bioassay (sheepshead minnow); type: in vivo; settings: algicide alone (control larvae without K. micrum)
Protocol: Ichthyotoxicity was evaluated using a static, acute (24-48 hour), small volume (2 ml), larval fish bioassay. Exposures were performed at 20° C. in 24-well non-tissue culture treated polystyrene plates (Becton Dickinson Labware, Franklin Lakes N.J.). Two species were utilized for ichthyotoxicity testing, zebrafish (Danio rerio) and sheepshead minnows (Cyprinodon variegatus), depending on their availability and salinity tolerance, with sheepshead minnows being tolerant to a wider range of salinities, but zebrafish being more readily obtainable in large numbers. Therefore, zebrafish, 5-<48 hrs old post-hatch, were used for toxic fraction testing, while sheepshead minnows, 3-<24 hours old post-hatch, were used to test whole dinoflagellate cultures. Larvae were not fed prior to or during testing. Previous experiments had shown that, at the biomass/water ratios used for each species, oxygen saturation remained >60% during the 48 hour exposure, as recommended in the Standard Guide for Conducting Acute Toxicity Tests with Fishes, Macroinvertebrates, and Amphibians (ASTM, 1992). All treatments were run in triplicate.
This experiment was run in triplicate. For these experiments, 12 psu ASW (Instant Ocean Brand) with added f/2-Si nutrient mixture (Guillard, 1975) and 1.5% soil extract and 0.3% chicken manure extract (alkalinity 75 mg L^−1 CaCO3) was used as the diluent. […]

striped bass fingerlings = settings: comparable salinities, higher alkalinities (Reardon and Harrell, 1990); cited from earlier work
[3] = test system: Karlodinium micrum (CCMP 1974); test: Dinoflagellate lysis due to copper sulfate and potassium permanganate (K. micrum); type: cell-based; settings: exposures ≧2 mg L^−1 and only after 2 hours
[4] = test system: rainbow trout erythrocytes; settings: for presence of hemolytic activity of copper solution: mixed with equal volume of 5% erythrocyte suspension
Protocol: The filtrate from water samples collected on Feb. […] Environmental water samples were allowed to thaw to room temperature and passed through a Sep-Pak Plus tC18 disposable cartridge (Waters Corp., Milford Mass.), attached to a vacuum manifold. The column was pre-equilibrated with methanol (20 ml) followed by H2O (20 ml). The cartridges were eluted with the following concentrations of MeOH/H2O: 100% H2O, 40%, 60%, 80%, and 100% MeOH (12 ml ea^−1). An aliquot of each elution was diluted, using Tris buffer +CaCl2, to give final dilutions ranging from 6 to 60% of original concentrations. […] The occurrence of hemolytic activity was determined by the absorbance of released hemoglobin, measured at 540 nm. Saponin (10 μg) served as a positive hemolysin control. Treatments were run in quadruplicate.
A hemolytic assay based on the lysis of fish erythrocytes was utilized to screen for bioactive materials. Cultures and culture fractions that were positive in the hemolytic assay were tested further using assays for ichthyotoxicity and cytotoxicity.
Blood was extracted from the caudal vein of rainbow trout (Oncorhynchus mykis) provided by the Center of Marine Biotechnology's Aquaculture Research Center. Needles were heparin (Sigma Chemical Co., St. Louis Mo.) treated and 10 units ml^−1 of additional heparin was added to whole blood samples to prevent clotting. […] Buffer pH was adjusted to 7.4 at 10° C. with 1N HCl, then filter sterilized (0.22 μm). […] Suspensions were stored at 4° C. for no longer than 10 days.
Hemolytic assays were performed by diluting test material in Tris buffer +CaCl2 (100 μl total) and adding this to a 5% erythrocyte suspension (100 μl). […] Assays were incubated on an orbital shaker (80-100 rpm) at 20° C. for 1 hour. Plates were then centrifuged at 2500 g for 5 min. and the supernatant (100 μl) was transferred to another flat bottom 96 well polystyrene plate, where the absorbance of released hemoglobin was read at 540 nm. Saponin (10 μg) (from Quillaja bark; Sigma Chemical Co., St. Louis Mo.) was used as a positive hemolysin control All treatments were run in quadruplicate.
LC50values and ranges were determined by Probit analysis (SPSS Base 10.0, SPSS Inc., Chicago Ill.).
Blood was extracted from the caudal vein of rainbow trout (Oncorhynchus mykis). […] Buffer pH was adjusted to 7.4 at 10° C. with 1N HCl, then filter sterilized (0.22 um). […] Blood suspensions were stored at 4° C. for no longer than 10 days.
Hemolysis assays were performed by diluting test material in Tris buFFer +CaCl2 (100 ul) and adding this to 100 ul of a 5% erythrocyte suspension for a total assay volume of 200 ul. […] Plates were incubated on an orbital shaker (80-100 rpm) at 20° C. for 1 hour. Plates were then centrifuged at 2000 g for 5 min. and the supernatant (100 ul) was transferred to a new flat bottom 96 well polystyrene plate, where the absorbance of released hemoglobin was read at 540 nm. Saponin (from Quillaja bark; Sigma Chemical Co., St. Louis Mo.) was used as a positive hemolysin control. Percent hemolysis (0-100%) was calculated from comparison to un-treated controls and samples treated with 10 ug saponin. All treatments were run in quadruplicate.
Hemolytic LC50 values were calculated from a dilution series of KmTx 2 and amphotericin B. LC50 values and ranges were determined by Probit analysis using a SPSS Base 10.0 statistical software package (SPSS Inc., Chicago, Ill.).

[5] = test system: rainbow trout erythrocytes; test: Membrane lipid inhibition assay of KmTx 2 hemolytic activity; type: cell-based; settings: for inhibition of the hemolytic activity of KmTx 2 by co-incubation: 0.001-10 μM sterol or lipid, KmTx 2 0.1, 0.5, 1 μg/ml
Protocol: To assess the inhibitory effects of exogenous membrane lipids on KmTx 2 hemolytic activity, the following sterols and lipids were tested: cholesterol, ergosterol, gymnodinosterol, and both natural and synthetic phosphatidylcholine. Cholesterol (5-cholesten-3β-ol) and L-α-phosphatidylcholine (brain, porcine) were purchased from Avanti Polar Lipids Inc. (Alabaster, Ala.); ergosterol (5,7,22-cholestatrien-24β-methyl-3β-ol) was purchased from Steraloids, Inc. (Newport, R.I.). Synthetic phosphatidylcholine (L-α-lecithin (β-γ-dipalmitoyl) was purchased from Calbiochem (San Diego, Calif.), Gymnodinosterol was isolated from filtered K. micrum (CCMP 2282) cells (isolation described in supplemental materials). KmTx 2: 0, 0.1, 0.5, and 1 μg/ml was added to solutions of Tris buffer +CaCl2 with either: 0, 0.001, 0.01, 0.1, 1 or 10 μM selected sterol or membrane lipid. Stock solutions of toxin and lipid were made in methanol and no more than 1% of each (2% total) was added to any given well. After brief mixing, these solutions were added 1: 1 with a diluted suspension of rainbow trout erythrocytes and hemolytic activity was assessed as described in supplemental materials.

[6] = for % DECREASE of measured free copper: n = 2
Protocol: The first experiment involved the addition of EDTA ([…]) [as EDTA +4 Na·2 H2O ] to 0.9% NaCl solutions containing CuSO4·5 H2O (0.1, 0.5, 2.5, or 10 mg L^−1 Cu). Free Cu was measured using the porphyrin method (range 0-210 μg L^−1 ) (HACH, Loveland Colo.). […] Each solution, with and without EDTA, was assayed for hemolytic activity.

[7] = test system: Candida albicans (ATCC 14053); test: Anti-fungal broth microdilution assay (yeast); type: cell-based
Protocol: (§1) The following fungal strains were purchased from the American Type Culture Collection (Manassas, Va.), Aspergillus niger (ATCC 1004) as a representative filamentous fungi, and Candida albicans (ATCC 14053) as a representative yeast. Assays were performed according to the following National Committee for Clinical Laboratory Standards documents; M27-A2 Reference Method for Broth Dilution Antifungal Susceptibility Testing of Yeasts; Approved Standard—Second Edition([NCCLS, 2002), and M38-A Reference Method for Broth Dilution Antifungal Susceptibility Testing of Filamentous Fungi; Approved Standard (NCCLS, 2002). Procedures for the broth microdilution modification were followed for both species with the following exceptions; A. niger stocks were maintained on Potato Dextrose Agar at 25° C., while C. albicans was maintained on Yeast Malt Agar at 28° C., both according to ATCC recommendations. Amphotericin B was used as a positive control. Microdilution assays were performed in HyQ-RPMI-1640 media (HyClone, Logan, Utah.), with 2.05 mM L-glutamine, without sodium bicarbonate, pH 7.2 using dilutions of 1 mg/ml DMSO stocks of KmTx 2 and amphotericin B.
(§2) The following concentrations were tested for both KmTx2 and amphotericin B: 0.0625, 0.125, 0.25, 0.5, 1, 2, 4, 8, and 16 μg/ml. A maximum of 1.6% DMSO was added to any given well. Plates were incubated at 25 and 28° C., respectively, for A. niger and C. albicans. […] Amphotericin B and all culture media were purchased from Sigma-Aldrich (St. Louis, Mo.).

[8] = test system: Aspergillus niger (ATCC 1004); test: Anti-fungal broth microdilution assay (filamentous fungi); type: cell-based
Protocol: as §1, §2

[9] = any concentration (0.0625-16 μg/ml) after 24 hours

## NC(=O)CC[C@@H]1NC(=O)[C@H](Cc2ccccc2)NC(=O)[C@H](Cc2ccc(O)cc2)NC(=O)[C@@H](N)CSSC[C@@H](C(=O)N2CCC[C@H]2C(=O)N[C@@H](CCCN=C(N)N)C(=O)NCC(N)=O)NC(=O)[C@H](CC(N)=O)NC1=O [vasopressin, reference compound]
[1]
  cytosolic Ca^2+ levels: spike in cytosolic Ca^2+ levels followed by rapid decline to level above baseline

## O.O.O.O.O.O=S(=O)([O-])[O-].[Cu+2] [CuSO4, CuSO4·5 H2O]
[2]
  mortality or epithelial damage of sheepshead minnow larvae: No mortality or epithelial damage
Striped bass fingerlings
  96h LC50: ca. 8 mg L^−1
[3]
  Cell lysis: occurred in K. micrum
[4]; copper 5 mg L^−1 without EDTA
  presence of hemolytic activity of copper solution: 4.957*
[4]; copper 20 mg L^−1 without EDTA
  presence of hemolytic activity of copper solution: 21.110*

## L-α-phosphatidylcholine (brain, porcine) [natural brain phosphotidylcholine]
[5]
  inhibition of the hemolytic activity of KmTx 2 by co-incubation: no inhibition

## CC(C)CCC[C@@H](C)[C@H]1CC[C@H]2[C@@H]3CC=C4C[C@@H](O)CC[C@]4(C)[C@H]3CC[C@]12C [cholesterol, 5-cholesten-3β-ol]
[5]
  inhibition of the hemolytic activity of KmTx 2 by co-incubation: inhibited
[5]; co-incubation with KmTx 2
  concentration at which complete inhibition was reached: ca. 10 μM

## O.O.O=C([O-])CN(CCN(CC(=O)[O-])CC(=O)[O-])CC(=O)[O-].[Na+].[Na+].[Na+].[Na+] [EDTA, EDTA +4 Na·2 H2O]
[6]; EDTA 2 mM, all concentrations tested
  free Cu chelated: > 90%
[6]; copper 0.2 mg L^−1, EDTA 2 mM
  % DECREASE of measured free copper: 96.3%
[6]; copper 1 mg L^−1, EDTA 2 mM
  % DECREASE of measured free copper: 95.9%
[6]; copper 5 mg L^−1, EDTA 2 mM
  % DECREASE of measured free copper: 90.4%
[6]; copper 20 mg L^−1, EDTA 2 mM
  % DECREASE of measured free copper: 92.6%
[4]
  effect of EDTA on hemolytic activity due to Cu alone: completely remove hemolytic activity

## CCCCCCCCCCCCCCCC(=O)OC[C@H](COP(=O)([O-])OCC[N+](C)(C)C)OC(=O)CCCCCCCCCCCCCCC [synthetic dipalmitoyl (16:0), L-α-lecithin (β-γ-dipalmitoyl)]
[5]
  inhibition of the hemolytic activity of KmTx 2 by co-incubation: no inhibition

## CC(C)[C@@H](C)/C=C/[C@@H](C)[C@H]1CC[C@H]2C3=CC=C4C[C@@H](O)CC[C@]4(C)[C@H]3CC[C@]12C [ergosterol, 5,7,22-cholestatrien-24β-methyl-3β-ol]
[5]
  inhibition of the hemolytic activity of KmTx 2 by co-incubation: inhibited
[5]; co-incubation with KmTx 2
  concentration at which inhibition plateaued: ca. 1 μM

## C[C@@H]1[C@H](O)[C@@H](C)/C=C/C=C/C=C/C=C/C=C/C=C/C=C/[C@H](O[C@@H]2O[C@H](C)[C@@H](O)[C@H](N)[C@@H]2O)C[C@@H]2O[C@](O)(C[C@@H](O)C[C@@H](O)[C@H](O)CC[C@@H](O)C[C@@H](O)CC(=O)O[C@H]1C)C[C@H](O)[C@H]2C(=O)O [amphotericin B, reference compound]
[7]; [9]
  growth: no growth was observed
[7]; lowest dose with no growth after 96 hours, 28° C.
  Minimal inhibitory concentration (MIC): 0.125 µg/mL (≈ 0.135 µM)
[4]; probit analysis of dilution series
  hemolytic LC50: 3.759 µg/mL
[8]; [9]
  growth: no growth was observed
[8]; lowest dose with no growth after 96 hours, 25° C.
  Minimal inhibitory concentration (MIC): 0.5 µg/mL (≈ 0.541 µM)

## CC(C)[C@H](C)C=C[C@@H](C)[C@H]1CCC2=C3CC[C@H]4[C@H](C)[C@@H](O)CC[C@]4(C)[C@H]3CC[C@@]21C [gymnodinosterol, (24S)-4α-methyl-5α-ergosta-8(14),22-dien-3β-ol]
[5]
  inhibition of the hemolytic activity of KmTx 2 by co-incubation: not inhibited
